We go through one sequence from patent US20030148404A1, “Peptides and substances, methods and devices using same for diagnosing and treating neurodegenerative disorders” (Ramot University Authority For Applied Research & …, priority 2000, published 2003).

Assay [1] relates to anti-NF—H antibodies. As to the kind of experiment: ELISA comparison of AD and NC sera with peptides; separation algorithms and grouping of peptides into FACTs. The class given is binding, human. Conditions: single peptide. As for the experimental part:
A Streptavidin stock solution (2 mg/ml Streptavidin prepared in purified water, aliquoted, and stored at −20° C.) was diluted 1:400 in ddH2O and a 100 μl aliquot was added to each well of a multiwell plate (96 well C-shaped microplates). The plates were incubated at 37° C. overnight until the liquid was entirely evaporated and stored until use at 4° C. in plastic bags containing a desiccating material. Such coated plates retained their activity for at least few days. The plates were washed 4 times by immersing in TBST. 200 μl of blocking solution were added to each of the wells. The plates were then incubated for 1 hour at room temperature. 100 μl of the biotinylated peptide (1 μg/ml in TBST) were added to each of the wells with the exception of the control wells. The plates were then incubated for 1 hour at room temperature.
Following incubation, the plates were washed in TBST 4 times as above. A 100 μl aliquot of serum which was diluted in a dilution buffer was added to each well and the plates were incubated for 1 hour at room temperature.
Following this incubation the wells were washed in TBST 4 times as above. A 100 μl aliquot of a secondary antibody (Goat anti-human IgG Horse radish peroxidase conjugate) which was diluted 1:2000 in dilution buffer was added to each well and the plates were incubated for 1 hour at room temperature.
The wells were then washed in TBST 4 times as above followed by two washes in TBS (TBST w/o Tween-20).
A 100 μl aliquot of the substrate solution was added to each well and the plates were incubated at room temperature.
OD was measured at 450 nm and 620 nm every minute over a period of 10-15 minutes.
Employing the above optimized parameters, eight AD and eight NC sera were analyzed using peptide 3M (SEQ ID NO:31). The experiment was repeated over a period of four days, employing four different plates each day. Two plates were preblocked with Gelatin, while two were not. In one experiment chloroform treated serum was analyzed on two additional plates. Three AD sera consistently gave rise to high signals in all experiments. One AD serum caused high signals in 10 out of the 13 plates and four AD sera were consistently negative. One NC sera caused high signals in some of the plates in the experiments conducted on all four days. Two additional NC sera gave rise to high signals in some of the plates in the experiments conducted on three of the four days. […] The reproducibility of the experiments was assessed by averaging the rank-order numbers of each sample in every experiment (Table 3). […]
A series of experiments were performed in which 48 AD and 48 NC were analyzed by the use of 17 different peptides (INO; 2L; 2LR; 3NO; 3L; 3M; 3R; 3LM; 3LR; 4LM; 4MR; 4LMR; 5LM; 6LR; 7MR; 8LMR and 8LMR-V). […]
For orientation: An ELISA detects its analyte on a solid surface through an enzyme-linked reagent.

The subject of assay [2] is anti-NF—H antibodies. As to the kind of experiment: Streptavidin-biotin ELISA: serum IgG binding to biotinylated NF-H peptide (protocol optimisation, pooled AD serum). More on the design: species or system human. The conditions noted are these: serum pooled from 10 AD patients; streptavidin plates blocked or not blocked; FIG. 1. The protocol: Solutions and Materials: Tris Buffered Saline (TBS): 50 mM Tris-HCl, pH 7.4 (Tris (Sigma, T-1378); HCl (Merck 1.00319.1000)) 200 mM NaCl (Merck, 1.06404.1000). TBST: 0.05% (w/v) Tween-20 (Sigma, P-7949) in TBS. Phosphate Buffered Saline (PBS): 0.1 M phosphate buffer, pH 7.2 (Sodium phosphate, monobasic (Sigma. S-8182) and Sodium phosphate, dibasic (Sigma, S-7907)). 200 mM NaCl (Merck, 1.06404.1000). PBST: 0.05% (w/v) Tween-20 (Sigma, P-7949) in PBS. Dilution/Blocking buffer: 0.5% Gelatin (Difco, 0143-17-9) in TBST. Streptavidin stock solution: 2 mg/ml Streptavidin (Sigma, S4762) in purified water. Aliquoted and kept at −20° C., this solution is stable indefinitely. Multiwell Plates: Nunc Maxisorp (Cat. No. 442404) 96 well C-shaped microplates. Secondary antibody: Goat anti-human IgG Horse radish peroxidase conjugate (Jackson, 109-035-088). Substrate solution: 1 mg/ml OPD (Sigma, P-8412)+0.005% H2O2 (Merck, 1.07210.0250) in […] Sodium Citrate buffer, pH 5 (Merck, 1.00 244.1000).
A Streptavidin stock solution (2 mg/ml Streptavidin prepared in purified water, aliquoted, and stored at −20° C.) was diluted 1:400 in ddH2O and a 100 μl aliquot was added to each well of a multiwell plate (96 well C-shaped microplates). […]
OD was measured at 450 nm and 620 nm every minute over a period of 10-15 minutes. […]

Non-standard residues stand in square brackets, D forms with d. No end group written: not given here. pS = N[C@@H](COP(=O)(O)O)C(=O)O

On to “A K S P A E A K S(PO3H) P V K E E A K S P-OH (AKSPAEAK[pS]PVKEEAKSP-OH; N-terminus assumed; SMILES CC(C)[C@H](NC(=O)[C@@H]1CCCN1C(=O)[C@H](COP(=O)(O)O)NC(=O)[C@H](CCCCN)NC(=O)[C@H](C)NC(=O)[C@H](CCC(=O)O)NC(=O)[C@H](C)NC(=O)[C@@H]1CCCN1C(=O)[C@H](CO)NC(=O)[C@H](CCCCN)NC(=O)[C@H](C)N)C(=O)N[C@@H](CCCCN)C(=O)N[C@@H](CCC(=O)O)C(=O)N[C@@H](CCC(=O)O)C(=O)N[C@@H](C)C(=O)N[C@@H](CCCCN)C(=O)N[C@@H](CO)C(=O)N1CCC[C@H]1C(=O)O) [3M]”, for which, in the assay with anti-NF—H antibodies [1] (eight AD and eight NC samples), the sensitivity came to 50% and the specificity stood at 87%. The AD cases detected entry in the assay with anti-NF—H antibodies [1] (eight AD and eight NC sera, pre-blocked plates) is listed as “four out of eight”. For the same sequence, the false positive signal entry with anti-NF—H antibodies [1] (eight AD and eight NC sera, pre-blocked plates (sample No. 485)) is “one”. Besides, the “saturating concentration of the peptide” value in the assay on anti-NF—H antibodies [2] lay in the range of 0.4 to 0.8 µg/mL.
